# According to patent publication US10967167B2, “Using alternating electric fields to increase permeability of the blood brain barrier” (priority 2018, dated 2021):
# Columns and labels:
# [1] = test system: rat brain (BBB); experiment: Evans Blue accumulation in rat brain after alternating electric fields; type: in vivo
# Description: A set of in vivo experiments on rats was also run to quantify the increase in vessel permeability caused by exposure to the alternating electric fields. These experiments used Evans Blue (EB) dye, which is an azo dye that has a very high affinity for serum albumin (molecule size ˜69 kDa). Because of its large molecule size, serum albumin will ordinarily not be able to get past the BBB.
# This was accomplished by shaving each rat's head, positioning a first pair of capacitively coupled electrodes on the top and bottom of the rat's head, and positioning a second pair of capacitively coupled electrodes on the left and right sides of the rat's head. A 100 kHz AC voltage was then applied between the top and bottom electrodes for 1 second, followed by a 100 kHz AC voltage applied between the right and left electrodes for 1 second, in a repeating sequence.
# Under the conditions indicated in Table 1 and for the times indicated on Table 1, EB was injected intravenously into the tail vein under anesthesia (Once injected, EB immediately binds to Albumin), and the EB was allowed to circulate for 2 hours in all cases. The following steps were then performed: (a) intracardiac perfusion with saline; (b) brains are sliced in four pieces with a brain slicer; (c) pieces were photographed to localize staining and weighted; (d) EB extraction after tissue homogenization with TCA 50% (1:3) and centrifuge and (e) EB quantification at 610 nm. Results are given as μg EB per g tissue.
# During the experiment, two animals from group 2 and one animal from group 4 were excluded (disrupted treatment, failure to inject EB into the tail vein). There were no differences between the animals treated with alternating electric fields (groups 1 and 2) and therefore these animals were grouped together. Similarly, there were no differences between sham heat and control animals (groups 3 and 4) and therefore these animals were grouped together.
# EB accumulation in these four specific sections was then measured. In addition, a computer simulation was performed to determine the field strength in each of these four sections. […]
# [2] = test system: rat brain (BBB); experiment: Dynamic Contrast Enhanced MRI (DCE-MRI) of rat brain; type: in vivo
# Description: Yet another set of in vivo experiments was performed using Dynamic Contrast Enhanced MRI (DCE-MRI) with intravenous injection of Gadolinium contrast agent (Gd-DTPA, Magnetol, MW 547). In these experiments, test rats were treated with 100 kHz alternating electric fields for 72 h, and control rats were not treated with alternating electric fields for the same period of time. After this 72 h period, the alternating electric field was turned off, the rats were anesthetized, and a series of 60 T1w MRI scans (each of the scans having a duration of 28 seconds) was acquired. The gadolinium contrast agent was injected into the rat's tail vein during the 7th of these 60 scans.
# The image analysis for each rat included (1) determining a baseline for each voxel by calculating the mean of the first six T1w MRI scans for each voxel (i.e., the scans prior to the injection of the gadolinium); (2) computing voxel by voxel, the percent signal change (i.e., gadolinium accumulation) over time relative to the baseline; (3) segmenting the brain into anterior, middle, and posterior segments; (4) generating for each of the three segments the mean percent signal change with respect to the baseline over all the voxels in the respective segment and then (5) averaging 4 consecutive time points (i.e. 4 scans) together. Finally, the data from all of the rats within any given group were averaged together. […]
Structure (SMILES),"average EB accumulation in the rat brain, averaged over all four sections 1-4 ([1]; 100 kHz fields 72 h vs control, p<0.05)","EB accumulation in brain sections 1, 2 (frontal cerebrum) ([1]; 100 kHz fields 72 h vs sham heat/control, EB i.v., 2 h circulation, highest field strength)","EB accumulation in posterior brain sections (3, 4) ([1]; 100 kHz fields 72 h vs sham heat/control, EB i.v., 2 h circulation, lower field strength)","contrast agent accumulation in the brain tissue (percent signal change) ([2]; 100 kHz fields 72 h (n=6) vs control rats (n=3), i.v.)",contrast agent accumulation in the brain tissue (percent signal change) ([2]; 100 kHz fields 72 h followed by 96 hours without fields (n=7) vs control+96 h (n=3))
"Cc1cc(-c2ccc(/N=N/c3ccc4c(S(=O)(=O)O)cc(S(=O)(=O)O)c(N)c4c3O)c(C)c2)ccc1/N=N/c1ccc2c(S(=O)(=O)O)cc(S(=O)(=O)O)c(N)c2c1O [EB, Evans Blue]",higher accumulation,statistically significant increase,smaller increase (that was not statistically significant),–,–
"O=C([O-])CN(CCN(CC(=O)[O-])CC(=O)O)CCN(CC(=O)[O-])CC(=O)O.[Gd+3] [contrast agent, Gd-DTPA]",–,–,–,significantly higher,not significantly different
